According to US8084621B2, “3-Pyrrolo[b]cyclohexylene-2-dihydroindolinone derivatives and uses thereof” (Jiangsu Simcere Pharmaceutical R&D Co. Ltd., priority 2006, dated 2011):

test system: Human Colon Cancer Cell Line (HCT 116); test: Tumor cell proliferation assay (MTT), HCT116; type: cell-based; settings: concentration of 10^−5 mol/L, preliminary screening, 72 hours, read-out: Inhibition rate % HCT116
From the text: The assay used generally is the blue tetrazolium bromide (MTT) method. […] The amount of formazan can be detected by the microplate reader through the absorption value at 570 nm. The amount of formazan product generated is proportional to the number of living cells in the sample, so the OD value may reflect the number of living cells and the ability of a test drug to inhibit or kill cells. The MTT assay may be used in determining the ability of different compounds of the present invention to inhibit one or more cancer cells proliferation. Similar assays can be designed along the same lines for any cancer cell using techniques well known in the art.
The assay used generally is the blue tetrazolium bromide (MTT) method. […] Intracellular purple formazan salt crystals can be solved in DMSO and the absorption value at 570 nm is detected by the microplate reader, then the number of living cells can be detected indirectly. So MTT assay may be used to determine the ability of a compound of the present invention to inhibit cell proliferation. Similar assays can be designed along the same lines for any cancer cell using techniques well known in the art.
2.2.12 Human Colon Cancer Cell Line (HCT 116);
The cells of 2.2.11, 2.2.12, 2.2.13 were cultured in MC COYS 5-A medium containing 12% fetal bovine serum in the condition of 37° C., 5% CO2.
2.3.1 Cell seeding: Trypsinize the cell by 0.05% trypsin-EDTA and add RPMI 1640 medium (DMEM or 5A) containing 12% calf serum. Count the number, then dilute to 1.67×10^4/ml. Add 180 ul/well to the 96 well plate (3000 cells/well).
2.3.2 Culture: cells are incubated for 24 hours at 37° C. under 5% CO2.
2.3.3 Preliminary screening: The compounds are firstly diluted to 0.1 mol/L with DMSO, and then diluted to three concentrations of 10^−5 mol/L, 10^−6 mol/L and 10^−7 mol/L. Add 20 ul test compounds to the 96 well plate and incubate for 72 hours. Each group has three parallel wells and all experiments repeat three times. Each inhibition ratio is calculated, then an average value of three times is taken as the measured value. 2.3.4 Staining 2.3.4.1 Attached cell: add 20 ul/well MTT to the 96-well plates; incubate for 4 hours in the incubator. Pour out the culture medium in the well and add 100 ul/well DMSO. Shake the plate for 5 min. 2.3.4.2 Suspension cell: add 20 ul/well MTT to the 96-well plates; incubate for 4 hours in the incubator. Add 50 ul/well 20% SDS and incubate for overnight in the incubator. 2.3.5 Reading the plates: read the absorbance A570-A630 with the Infinite M200 microtiter plate reader. Calculate the inhibition ratio of the test compounds. 2.3.6 Secondary screening: the compounds whose inhibition ratio is greater than 50% at the concentrations of 10^−5 mol/L in the preliminary screening will be picked out for Secondary screening. Dilute these compounds to ten concentrations: 10^−5 mol/L, 0.5×10^−5 mol/L, 10^−6 mol/L, 0.8×10^−6 mol/L, 0.6×10^−6 mol/L, 0.4×10^−6 mol/L, 0.2×10^−6 mol/L, 10^−7 mol/L, 0.8×10^−7 mol/L and 0.4×10^−7 mol/L. Add 20 ul test compound solution to the 96 well plate and incubate for 48 hours. Each group has three parallel wells and all experiments repeat for three times. Read the plates and calculate the inhibition ratio according to the preliminary screening method. 2.3.7 Calculate the Inhibition Ratio of Cell Proliferation and the IC50
According to the inhibition ratio of cell proliferation at the different concentrations of the compound, inhibition ratio of 50% of the test compound is calculated through the logarithm of the concentration of the compound with the Logit [I] linear regression, and an average value of three times is taken as the measured value of a sample.

SMILES | inhibition at 10 µM [%]
CCN(CC)CCNC(=O)c1c(C)[nH]c2c1CCC/C2=C1/C(=O)Nc2ccc(F)cc21 [I-2, N-(2-(diethylamino)ethyl)-2-methyl-7-[1,2-dihydro-5-fluoro-2-oxo-3H-indol-(Z)-3-ylidene]-4,5,6,7-tetrahydro-1H-indole-3-carboxamide] | 99.4
Cc1[nH]c2c(c1C(=O)NCC(O)CN1CCCCC1)CCC/C2=C1/C(=O)Nc2ccc(F)cc21 (stereo not shown) [I-74, N-(2-hydroxy-3-(piperidin-1-yl)propyl)-2-methyl-7-[1,2-dihydro-5-fluoro-2-oxo-3H-indol-(Z)-3-ylidene]-4,5,6,7-tetrahydro-1H-indole-3-carboxamide] | 99.9
Cc1[nH]c2c(c1C(=O)NCC(O)CN1CCCCC1)CCC/C2=C1/C(=O)Nc2ccccc21 (stereo not shown) [I-73, N-(2-hydroxy-3-(piperidin-1-yl)propyl)-2-methyl-7-[1,2-dihydro-2-oxo-3H-indol-(Z)-3-ylidene]-4,5,6,7-tetrahydro-1H-indole-3-carboxamide] | 98.7
Cc1[nH]c2c(c1C(=O)N1CCN(C)CC1)CCC/C2=C1/C(=O)Nc2ccc(F)cc21 [I-14, 2-methyl-3-(4-methylpiperazine-1-carbonyl)-7-[1,2-dihydro-5-fluoro-2-oxo-3H-indol-(Z)-3-ylidene]-4,5,6,7-tetrahydro-1H-indole] | 22.1
Cc1[nH]c2c(c1C(=O)NCCO)CCC/C2=C1/C(=O)Nc2ccccc21 [I-8, N-(2-hydroxyethyl)-2-methyl-7-[1,2-dihydro-2-oxo-3H-indol-(Z)-3-ylidene]-4,5,6,7-tetrahydro-1H-indole-3-carboxamide] | 79.1
CCN(CC)CCNC(=O)c1c(C)[nH]c2c1CCC/C2=C1/C(=O)Nc2ccccc21 [I-5, N-(2-(diethylamino)ethyl)-2-methyl-7-[1,2-dihydro-2-oxo-3H-indol-(Z)-3-ylidene]-4,5,6,7-tetrahydro-1H-indole-3-carboxamide] | 99.9
Cc1[nH]c2c(c1C(=O)NCCO)CCC/C2=C1/C(=O)Nc2ccc(F)cc21 [I-9, N-(2-hydroxyethyl)-2-methyl-7-[1,2-dihydro-5-fluoro-2-oxo-3H-indol-(Z)-3-ylidene]-4,5,6,7-tetrahydro-1H-indole-3-carboxamide] | 61.9
